Activity calls are given as the source filed them. The rule behind the calls is not given here.

Usually IC50 stands for the concentration at which inhibition is half-maximal.

The first experiment addresses T1, Estrogen-related receptor gamma (Mus musculus, UniProt P62509).
T1 sequence (P62509 whole entry): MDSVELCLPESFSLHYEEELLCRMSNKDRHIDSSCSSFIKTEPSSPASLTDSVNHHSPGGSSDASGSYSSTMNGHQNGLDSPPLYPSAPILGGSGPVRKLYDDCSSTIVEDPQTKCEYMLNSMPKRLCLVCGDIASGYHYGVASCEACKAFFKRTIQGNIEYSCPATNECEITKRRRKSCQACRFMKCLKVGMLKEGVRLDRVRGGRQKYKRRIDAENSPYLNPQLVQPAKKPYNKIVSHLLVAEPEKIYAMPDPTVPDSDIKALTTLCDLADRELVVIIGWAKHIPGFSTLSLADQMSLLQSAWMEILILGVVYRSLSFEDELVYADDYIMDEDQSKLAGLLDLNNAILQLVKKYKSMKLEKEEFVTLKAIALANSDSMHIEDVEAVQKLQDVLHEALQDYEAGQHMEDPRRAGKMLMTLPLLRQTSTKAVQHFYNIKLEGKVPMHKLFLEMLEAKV
As to the kind of experiment: Inverse agonist activity at Gal4-tagged mouse ERR-gamma LBD transfected in HEK293T cells co-expressing FR-luc assessed as inhibition of transcriptional activity incubated for 24 hrs by luciferase reporter gene assay.
Settings: not given
Type of experiment: cell-based. (In general: Reporter assays use an easily measured gene product as a stand-in for the process of interest.)
As to `COc1cccc(Oc2cc(N)cc(NC(=O)c3cn(-c4ccccc4)nc3-c3cccc(OC)c3)c2)c1`, the half-inhibitory concentration (IC50) came out at 8.47 µM.

On to `COC(=O)c1cccc(Oc2cc(N)cc(NC(=O)c3cn(-c4ccccc4)nc3-c3ccccc3)c2)c1`, for which the IC50 was determined as 8.42 µM.

Take `COc1cccc(-c2nn(-c3ccccc3)cc2C(=O)Nc2cc(N)cc(Oc3cccnc3)c2)c1`: the half-maximal inhibitory concentration (IC50) came to 2.91 µM.

With `COc1cccc(-c2nn(-c3ccccc3)cc2C(=O)Nc2cccc(Oc3cccnc3)c2)c1`, the IC50 stood at 2.11 µM.

As to `COc1cc(C)ccc1Oc1ccc(NC(=O)c2cn(-c3ccccc3)nc2-c2ccccc2)cc1`, the half-inhibitory concentration (IC50) amounted to 9.48 µM.

Regarding `COc1ccc(-c2nn(-c3ccccc3)cc2C(=O)Nc2ccc(Oc3ccc(C(C)C)cc3)cc2)cc1OC`, the concentration for half-maximal inhibition (IC50) is 9.95 µM.

With `O=C(Nc1cccc(Oc2cccnc2)c1)c1cn(-c2ccccc2)nc1-c1ccccc1`, the IC50 was 1.33 µM.

Regarding `O=C(Nc1cc(Oc2cccnc2)cc(C(F)(F)F)c1)c1cn(-c2ccccc2)nc1-c1ccccc1`, the IC50 worked out at 6.75 µM.

For the compound `COc1cc(C)ccc1Oc1ccc(NC(=O)c2cn(-c3ccccc3)nc2-c2ccc(C)cc2)cc1`, the 50% inhibitory concentration (IC50) is 5.48 µM.

Regarding `COc1cccc(Oc2cc(N)cc(NC(=O)c3cn(-c4ccccc4)nc3-c3ccccc3)c2)c1`, the IC50 worked out at 13.5 µM.

`COc1ccc(-c2nn(-c3ccccc3)cc2C(=O)Nc2ccc(Oc3ccc(C)cc3OC)cc2)cc1OC`: the concentration for half-maximal inhibition (IC50) was determined as 10.4 µM.

The target in another experiment is T2, Estrogen-related receptor gamma (Mus musculus) (UniProt P62509).
T2 sequence (whole entry): T1 sequence (P62509 whole entry)
As to the kind of experiment: Inverse agonist activity at Gal4-tagged mouse ERR-gamma LBD transfected in HEK293T cells co-expressing FR-luc assessed as inhibition of transcriptional activity at 10 uM incubated for 24 hrs by luciferase reporter gene assay.
Settings: not given
In kind it is cell-based.
As for `COc1cccc(-c2nn(-c3ccccc3)cc2C(=O)Nc2cc(N)cc(OCCN(C)C)c2)c1`, the inhibition result was “inactive”.

Consider `COc1cccc(-c2nn(-c3ccccc3)cc2C(=O)Nc2cc(OCCCN(C)C)cc(C(F)(F)F)c2)c1`, for which the inhibition entry was “inactive”.

Consider `COc1cccc(-c2nn(-c3ccccc3)cc2C(=O)Nc2cc(N)cc(OCCCN(C)C)c2)c1`, for which the inhibition result is “inactive”.

In the case of `CN(C)CCCOc1cc(N)cc(NC(=O)c2cn(-c3ccccc3)nc2-c2ccccc2)c1`, the inhibition entry was “inactive”.

`Nc1cc(NC(=O)c2cn(-c3ccc(CO)cc3)nc2-c2ccccc2)cc(Oc2cccnc2)c1`: the inhibition entry is “inactive”.

On to `Nc1cc(NC(=O)c2cn(-c3ccc(C(=O)O)cc3)nc2-c2ccccc2)cc(Oc2cccnc2)c1`, for which the inhibition entry was “inactive”.

`CN(C)CCCOc1cc(NC(=O)c2cn(-c3ccccc3)nc2-c2ccccc2)cc(C(F)(F)F)c1`: the inhibition entry is “inactive”.

As for `COc1cccc(-c2nn(-c3ccccc3)cc2C(=O)Nc2cc(OCCN(C)C)cc(C(F)(F)F)c2)c1`, the inhibition result is “inactive”.

On to `CN(C)CCOc1cc(NC(=O)c2cn(-c3ccccc3)nc2-c2ccccc2)cc(C(F)(F)F)c1`, for which the inhibition result was “inactive”.

Take `COC(=O)c1ccc(-n2cc(C(=O)Nc3cc(N)cc(Oc4cccnc4)c3)c(-c3ccccc3)n2)cc1`: the inhibition result was “inactive”.

As for `CCN(CC)C(=O)c1ccc(-n2cc(C(=O)Nc3cc(N)cc(Oc4cccnc4)c3)c(-c3ccccc3)n2)cc1`, the inhibition result was “inactive”.

The same experiment, now with this note: filed as inverse agonist.
On to `Cc1ccc(-c2nn(-c3ccccc3)cc2C(=O)Nc2ccc(Oc3ccc(C(C)C)cc3)cc2)cc1`, for which the result was Active.
